Experimental data from the supplement of paper PMC10307832.

Compound: O=C(O)c1ccc2c(c1)nc(Nc1cccc(Cl)c1)c1ccncc12 [Silmitasertib] + CC(=O)c1c(C)c2cnc(Nc3ccc(N4CCNCC4)cn3)nc2n(C2CCCC2)c1=O [Palbociclib] (partner 0.5 µM)
Test: relative viability (nuclei count vs DMSO), 5 days (fraction); higher = more cells survive
Method in brief: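 Five library-drug doses in √10 steps were combined with a fixed anchor-drug dose, or a single drug was given alone, by pin tool to lung cancer cell lines in 1536-well plates the day after seeding. Nuclei were stained and counted after 5 days. Relative viability is the nuclei count in treated wells over that in vehicle wells, taken as the median of duplicate plates.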

| Cell Line | relative viability (first compound 0.04 µM) | relative viability (first compound 0.4 µM) | relative viability (first compound 1.265 µM) | relative viability (first compound 4 µM) |
| --- | --- | --- | --- | --- |
| EMC-BAC-2 | 0.521 | 0.448 | 0.378 | 0.292 |
| NCI-H661 | 0.421 | 0.511 | 0.407 | 0.359 |
| LU99A | 0.359 | 0.397 | 0.325 | 0.404 |
| LK-2 | 0.593 | – | 0.509 | 0.397 |
| NCI-H3122 | 0.219 | 0.17 | 0.172 | 0.155 |
| NCI-H2347 | 0.43 | 0.418 | 0.38 | 0.394 |
| HCC-827 | 0.556 | – | 0.343 | 0.442 |
| NCI-H1666 | 0.617 | 0.654 | 0.578 | 0.61 |
| NCI-H358 | 0.133 | 0.128 | 0.134 | 0.125 |
| 201T | 0.353 | 0.346 | 0.37 | 0.387 |
| PC-3 [JPC-3] | 0.544 | 0.544 | 0.615 | 0.585 |
| NCI-H2405 | 0.574 | 0.501 | 0.425 | 0.536 |
| LXF-289 | 0.606 | – | 0.657 | 0.66 |
| EKVX | 0.439 | – | 0.336 | 0.423 |
| A-427 | 0.555 | 0.451 | 0.583 | 0.517 |
| ChaGo-K-1 | 0.995 | 0.674 | 0.896 | 0.929 |
| NCI-H2342 | 0.522 | – | 0.494 | 0.495 |
| SK-MES-1 | 0.359 | 0.322 | 0.253 | 0.275 |

| Cell Line | relative viability (first compound 0.04 µM) | relative viability (first compound 0.4 µM) | relative viability (first compound 1.265 µM) | relative viability (first compound 4 µM) |
| --- | --- | --- | --- | --- |
| LCLC-97TM1 | 0.234 | – | 0.15 | 0.151 |
| NCI-H2170 | 0.371 | 0.284 | 0.363 | 0.344 |
| NCI-H1993 | 0.57 | 0.576 | 0.525 | 0.44 |
| NCI-H460 | 0.203 | 0.25 | 0.189 | 0.075 |
| NCI-H1975 | 0.645 | – | 0.192 | 0.499 |
| RERF-LC-KJ | 1.16 | 0.993 | 0.758 | 0.798 |
| NCI-H322M | 0.411 | 0.486 | 0.422 | 0.351 |
| NCI-H1651 | 0.495 | 0.516 | 0.534 | 0.528 |
| HARA | 0.389 | 0.252 | 0.201 | 0.261 |
| H3255 | 0.319 | 0.348 | 0.316 | 0.294 |
| NCI-H441 | 0.254 | – | 0.206 | 0.178 |
| CAL-12T | 0.408 | 0.382 | 0.313 | 0.194 |
| ABC-1 | 1.09 | 0.86 | 0.555 | 0.674 |
| NCI-H1792 | 0.674 | 0.574 | 0.708 | 0.698 |
| NCI-H1437 | 0.305 | 0.26 | 0.221 | 0.222 |
| HOP-62 | 0.466 | – | 0.373 | 0.396 |
| EPLC-272H | 0.319 | – | 0.343 | 0.304 |
| COR-L 105 | 0.43 | 0.426 | 0.396 | 0.399 |
